What was measured:
PI3K p110α = biological target: T1, PI3K p110α (Homo sapiens, UniProt P42336); test: PI3 Kinase Activity/Inhibitor Assay Kit (Millipore […]-493), competitive biotinylated-PIP3/GRP1 ELISA, PIP2 substrate; assay type: biochemical
T1 construct: gene PIK3CA

PI3K p110β = biological target: T2, PI3K p110β (Homo sapiens, UniProt P42338); test: as above; assay type: biochemical
T2 construct: gene PIK3CB
T2 sequence (P42338 whole entry): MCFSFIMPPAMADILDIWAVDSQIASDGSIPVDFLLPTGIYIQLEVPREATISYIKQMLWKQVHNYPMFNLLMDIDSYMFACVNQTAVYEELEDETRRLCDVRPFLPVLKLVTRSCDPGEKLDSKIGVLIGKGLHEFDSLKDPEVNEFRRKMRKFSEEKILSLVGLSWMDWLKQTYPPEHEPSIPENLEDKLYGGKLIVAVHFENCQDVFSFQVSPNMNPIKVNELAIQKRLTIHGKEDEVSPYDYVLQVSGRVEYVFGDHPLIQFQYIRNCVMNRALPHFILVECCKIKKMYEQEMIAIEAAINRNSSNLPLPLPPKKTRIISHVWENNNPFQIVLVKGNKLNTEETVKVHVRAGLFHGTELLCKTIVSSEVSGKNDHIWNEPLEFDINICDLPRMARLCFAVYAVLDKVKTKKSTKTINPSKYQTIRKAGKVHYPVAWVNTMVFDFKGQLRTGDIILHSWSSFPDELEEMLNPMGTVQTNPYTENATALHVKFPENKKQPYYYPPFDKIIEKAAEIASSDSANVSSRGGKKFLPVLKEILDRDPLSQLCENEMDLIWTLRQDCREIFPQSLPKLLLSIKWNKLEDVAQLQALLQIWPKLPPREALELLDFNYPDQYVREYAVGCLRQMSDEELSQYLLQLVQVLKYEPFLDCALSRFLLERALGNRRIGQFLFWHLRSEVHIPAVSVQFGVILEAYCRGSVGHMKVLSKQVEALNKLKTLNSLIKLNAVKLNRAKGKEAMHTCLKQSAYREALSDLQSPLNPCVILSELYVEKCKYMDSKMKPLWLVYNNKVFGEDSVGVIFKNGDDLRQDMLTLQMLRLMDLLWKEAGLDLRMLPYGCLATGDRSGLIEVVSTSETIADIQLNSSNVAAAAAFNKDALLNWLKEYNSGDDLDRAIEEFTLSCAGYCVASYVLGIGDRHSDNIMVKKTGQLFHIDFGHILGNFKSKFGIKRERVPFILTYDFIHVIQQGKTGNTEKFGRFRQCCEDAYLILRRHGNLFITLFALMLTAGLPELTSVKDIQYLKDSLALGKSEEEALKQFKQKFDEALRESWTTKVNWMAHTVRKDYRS

T1 sequence (P42336 whole entry): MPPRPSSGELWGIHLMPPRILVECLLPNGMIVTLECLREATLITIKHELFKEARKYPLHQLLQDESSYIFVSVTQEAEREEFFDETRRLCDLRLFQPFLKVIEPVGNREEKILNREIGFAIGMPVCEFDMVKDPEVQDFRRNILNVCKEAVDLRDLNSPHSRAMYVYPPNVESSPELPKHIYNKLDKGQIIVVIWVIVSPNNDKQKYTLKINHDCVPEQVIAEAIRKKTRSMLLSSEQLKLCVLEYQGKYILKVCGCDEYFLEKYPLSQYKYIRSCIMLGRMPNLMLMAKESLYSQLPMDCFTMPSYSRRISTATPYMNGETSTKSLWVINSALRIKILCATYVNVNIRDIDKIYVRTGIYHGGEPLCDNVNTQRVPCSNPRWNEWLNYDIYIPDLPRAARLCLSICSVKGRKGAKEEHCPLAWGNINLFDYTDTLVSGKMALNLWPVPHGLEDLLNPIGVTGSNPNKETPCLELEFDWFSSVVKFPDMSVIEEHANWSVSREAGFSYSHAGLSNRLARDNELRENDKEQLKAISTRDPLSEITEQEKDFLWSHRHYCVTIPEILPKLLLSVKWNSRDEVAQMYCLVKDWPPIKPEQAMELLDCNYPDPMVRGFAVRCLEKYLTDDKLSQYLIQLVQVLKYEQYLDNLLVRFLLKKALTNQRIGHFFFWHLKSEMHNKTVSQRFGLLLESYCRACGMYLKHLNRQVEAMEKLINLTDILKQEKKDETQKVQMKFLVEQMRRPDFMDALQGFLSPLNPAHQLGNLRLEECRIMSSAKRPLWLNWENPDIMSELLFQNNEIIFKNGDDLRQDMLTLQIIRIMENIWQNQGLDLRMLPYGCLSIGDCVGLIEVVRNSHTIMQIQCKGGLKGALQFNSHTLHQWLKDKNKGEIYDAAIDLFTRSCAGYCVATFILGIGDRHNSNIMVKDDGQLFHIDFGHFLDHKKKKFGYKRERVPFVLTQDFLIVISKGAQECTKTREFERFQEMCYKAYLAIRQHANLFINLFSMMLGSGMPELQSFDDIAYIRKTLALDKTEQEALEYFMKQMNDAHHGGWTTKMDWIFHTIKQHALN

O[C@H]1[C@H](O)[C@@H](O)[C@H](O)[C@@H](O)[C@H]1O [MI, Myo-inositol]
IC50 (PI3K p110α): 90.2 µM
IC50 (PI3K p110β): 21.7 µM
